Experimental data from ChEMBL document CHEMBL4842384 (J Med Chem, 2021).
Values after ≈ are worked out from the molar mass of the structure shown.

What was measured:
[1] = Aqueous solubility of compound at pH 1; assay type: physicochemical; settings: buffer
[2] = Aqueous solubility of compound at pH 6.5; assay type: physicochemical; settings: buffer
[3] = Permeability of compound at pH 5.5 by PAMPA assay; assay type: ADME; settings: for Papp: read-out: permeability
[4] = Permeability of compound at pH 7.4 by PAMPA assay; assay type: ADME; settings: for Papp: read-out: permeability
[5] = Cmax in C57BL6 mouse at 30 mg/kg, po; assay type: ADME, organism-based; parameters: route oral, dose 30 mg/kg; settings: in vivo
[6] = AUC in C57BL6 mouse at 30 mg/kg, po; assay type: ADME, organism-based; parameters: dose 30 mg/kg; settings: in vivo
[7] = Oral bioavailability in C57BL6 mouse at 30 mg/kg; assay type: ADME, organism-based; settings: in vivo
[8] = Aqueous solubility of compound at pH 7.4; assay type: physicochemical; settings: buffer

| SMILES | solubility [1] | solubility [2] | permeability [3] | permeability [4] | Cmax [5] | AUC [6] | bioavailability [7] | solubility [8] | Papp [3] | Papp [4] |
| --- | --- | --- | --- | --- | --- | --- | --- | --- | --- | --- |
| COc1ccc(NC(=O)C2=C(c3ccc(C)cc3)C[C@](c3ccc(OCCCC(F)(F)F)cc3)(C(F)(F)F)NC2=O)cc1 | < 1 µg/mL | < 1 µg/mL | Nd(Insoluble) | Nd(Insoluble) | 0.16 µM | 1.1 µM·h | 15% |  |  |  |
| Cc1ccc(C2=C(c3nnn[nH]3)C(=O)N[C@@](c3ccc(OCCCCCC(F)(F)F)cc3)(C(F)(F)F)C2)cc1 | 1 µg/mL (≈ 1.81 µM) | 332 µg/mL (≈ 600 µM) |  |  | 4.3 µM | 22 µM·h | 88% | 1130 µg/mL (≈ 2050 µM) | 46.6 ×10⁻⁶ cm/s | 34.1 ×10⁻⁶ cm/s |
| Cc1ccc(C2=C(c3nnn[nH]3)C(=O)N[C@@](c3ccc(OCCCC(F)(F)F)cc3)(C(F)(F)F)C2)cc1 [BMS-963272] | 11 µg/mL (≈ 20.9 µM) | 1180 µg/mL (≈ 2240 µM) |  |  | 11 µM | 93 µM·h | 50% | > 2450 µg/mL | 47.9 ×10⁻⁶ cm/s | 17.9 ×10⁻⁶ cm/s |
